#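 In this assay, cells in 96-well plates receive the compound at five concentrations for 48 hours. Endpoints are linearly interpolated between the surrounding concentrations. TGI: total growth inhibition.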
# Key:
# Assay in all cases: growth of human tumour cells (NCI), 48 h
# NCI-H522 lung = tested on: NCI-H522 lung
# T-47D breast = tested on: T-47D breast
# SK-MEL-2 melanoma = tested on: SK-MEL-2 melanoma
# CAKI-1 renal = tested on: CAKI-1 renal
# OVCAR-3 ovarian = tested on: OVCAR-3 ovarian
# UO-31 renal = tested on: UO-31 renal
# DU-145 prostate = tested on: DU-145 prostate
# HCT-15 colon = tested on: HCT-15 colon
# MDA-MB-231 breast = tested on: MDA-MB-231 breast
# CCRF-CEM leukemia = tested on: CCRF-CEM leukemia
# MOLT-4 leukemia = tested on: MOLT-4 leukemia
# SF-268 CNS = tested on: SF-268 CNS
# BT-549 breast = tested on: BT-549 breast
# NCI-H460 lung = tested on: NCI-H460 lung
# IGROV1 ovarian = tested on: IGROV1 ovarian
# HCT-116 colon = tested on: HCT-116 colon
# SK-OV-3 ovarian = tested on: SK-OV-3 ovarian
# MCF7 breast = tested on: MCF7 breast
# RPMI-8226 leukemia = tested on: RPMI-8226 leukemia
# SW-620 colon = tested on: SW-620 colon
# HCC-2998 colon = tested on: HCC-2998 colon
# M14 melanoma = tested on: M14 melanoma
# HOP-62 NSCLC = tested on: HOP-62 NSCLC
# SF-295 CNS = tested on: SF-295 CNS
# MDA-MB-435 = tested on: MDA-MB-435
# OVCAR-5 ovarian = tested on: OVCAR-5 ovarian
# A549 NSCLC = tested on: A549 NSCLC
# U251 CNS = tested on: U251 CNS
# NCI/ADR-RES ovarian = tested on: NCI/ADR-RES ovarian
# OVCAR-4 ovarian = tested on: OVCAR-4 ovarian
# COLO 205 colon = tested on: COLO 205 colon
# OVCAR-8 ovarian = tested on: OVCAR-8 ovarian
# NCI-H23 lung = tested on: NCI-H23 lung
# SR leukemia = tested on: SR leukemia
# KM12 colon = tested on: KM12 colon
# SN12C renal = tested on: SN12C renal
# SNB-19 CNS = tested on: SNB-19 CNS
# UACC-257 melanoma = tested on: UACC-257 melanoma
# SK-MEL-5 melanoma = tested on: SK-MEL-5 melanoma
# 786-0 renal = tested on: 786-0 renal
# HL-60(TB) leukemia = tested on: HL-60(TB) leukemia
# HS 578T breast = tested on: HS 578T breast
# NCI-H226 lung = tested on: NCI-H226 lung
# UACC-62 melanoma = tested on: UACC-62 melanoma
# HT29 colon = tested on: HT29 colon
# LOX IMVI melanoma = tested on: LOX IMVI melanoma
# PC-3 prostate = tested on: PC-3 prostate
# SF-539 CNS = tested on: SF-539 CNS
# MDA-N = tested on: MDA-N
# SK-MEL-28 melanoma = tested on: SK-MEL-28 melanoma
# A498 renal = tested on: A498 renal
# TK-10 renal = tested on: TK-10 renal
# MALME-3M melanoma = tested on: MALME-3M melanoma
# ACHN renal = tested on: ACHN renal
# K-562 leukemia = tested on: K-562 leukemia
# EKVX NSCLC = tested on: EKVX NSCLC
# HOP-92 NSCLC = tested on: HOP-92 NSCLC
# RXF 393 renal = tested on: RXF 393 renal
# SNB-75 CNS = tested on: SNB-75 CNS
structure (smiles),measurement,setting,value
O=S(=O)(O)c1ccc(NN(c2c(O)ccc3ccccc23)S(=O)(=O)O)cc1,TGI,NCI-H522 lung,> 100 µM
same,TGI,T-47D breast,> 100 µM
same,TGI,SK-MEL-2 melanoma,> 100 µM
same,TGI,CAKI-1 renal,> 100 µM
same,TGI,OVCAR-3 ovarian,> 100 µM
same,TGI,UO-31 renal,> 100 µM
same,TGI,DU-145 prostate,> 100 µM
same,TGI,HCT-15 colon,> 100 µM
same,TGI,MDA-MB-231 breast,> 100 µM
same,TGI,CCRF-CEM leukemia,> 100 µM
same,TGI,MOLT-4 leukemia,> 100 µM
same,TGI,SF-268 CNS,> 100 µM
same,TGI,BT-549 breast,> 100 µM
same,TGI,NCI-H460 lung,> 100 µM
same,TGI,IGROV1 ovarian,> 100 µM
same,TGI,HCT-116 colon,> 100 µM
same,TGI,SK-OV-3 ovarian,> 100 µM
same,TGI,MCF7 breast,> 100 µM
same,TGI,RPMI-8226 leukemia,> 100 µM
same,TGI,SW-620 colon,> 100 µM
same,TGI,HCC-2998 colon,> 100 µM
same,TGI,M14 melanoma,> 100 µM
same,TGI,HOP-62 NSCLC,> 100 µM
same,TGI,SF-295 CNS,> 100 µM
same,TGI,MDA-MB-435,> 100 µM
same,TGI,OVCAR-5 ovarian,> 100 µM
same,TGI,A549 NSCLC,> 100 µM
same,TGI,U251 CNS,> 100 µM
same,TGI,NCI/ADR-RES ovarian,> 100 µM
same,TGI,OVCAR-4 ovarian,> 100 µM
same,TGI,COLO 205 colon,> 100 µM
same,TGI,OVCAR-8 ovarian,> 100 µM
same,TGI,NCI-H23 lung,> 100 µM
same,TGI,SR leukemia,> 100 µM
same,TGI,KM12 colon,> 100 µM
same,TGI,SN12C renal,> 100 µM
same,TGI,SNB-19 CNS,> 100 µM
same,TGI,UACC-257 melanoma,> 100 µM
same,TGI,SK-MEL-5 melanoma,> 100 µM
same,TGI,786-0 renal,> 100 µM
same,TGI,HL-60(TB) leukemia,> 100 µM
same,TGI,HS 578T breast,> 100 µM
same,TGI,NCI-H226 lung,> 100 µM
same,TGI,UACC-62 melanoma,> 100 µM
same,TGI,HT29 colon,> 100 µM
same,TGI,LOX IMVI melanoma,> 100 µM
same,TGI,PC-3 prostate,> 100 µM
same,TGI,SF-539 CNS,> 100 µM
same,TGI,MDA-N,> 100 µM
same,TGI,SK-MEL-28 melanoma,> 100 µM
same,TGI,A498 renal,> 100 µM
same,TGI,TK-10 renal,> 100 µM
same,TGI,MALME-3M melanoma,> 100 µM
same,TGI,ACHN renal,> 100 µM
same,TGI,K-562 leukemia,> 100 µM
same,TGI,EKVX NSCLC,> 100 µM
CCOC(=O)C(NCc1ccccc1)(NC(=O)c1ccccc1)C(F)(F)F (stereo not drawn),TGI,NCI-H522 lung,> 100 µM
same,TGI,T-47D breast,> 100 µM
same,TGI,SK-MEL-2 melanoma,> 100 µM
same,TGI,HOP-92 NSCLC,> 100 µM
same,TGI,CAKI-1 renal,> 100 µM
same,TGI,OVCAR-3 ovarian,> 100 µM
same,TGI,UO-31 renal,> 100 µM
same,TGI,DU-145 prostate,> 100 µM
same,TGI,HCT-15 colon,> 100 µM
same,TGI,MDA-MB-231 breast,83.6 µM
same,TGI,CCRF-CEM leukemia,89.9 µM
same,TGI,MOLT-4 leukemia,> 100 µM
same,TGI,SF-268 CNS,> 100 µM
same,TGI,BT-549 breast,> 100 µM
same,TGI,IGROV1 ovarian,> 100 µM
same,TGI,RXF 393 renal,> 100 µM
same,TGI,HCT-116 colon,> 100 µM
same,TGI,SK-OV-3 ovarian,> 100 µM
same,TGI,MCF7 breast,> 100 µM
same,TGI,RPMI-8226 leukemia,> 100 µM
same,TGI,SW-620 colon,> 100 µM
same,TGI,HCC-2998 colon,> 100 µM
same,TGI,M14 melanoma,> 100 µM
same,TGI,HOP-62 NSCLC,> 100 µM
same,TGI,SF-295 CNS,> 100 µM
same,TGI,MDA-MB-435,> 100 µM
same,TGI,OVCAR-5 ovarian,> 100 µM
same,TGI,A549 NSCLC,> 100 µM
same,TGI,U251 CNS,> 100 µM
same,TGI,SNB-75 CNS,> 100 µM
same,TGI,NCI/ADR-RES ovarian,> 100 µM
same,TGI,OVCAR-4 ovarian,> 100 µM
same,TGI,COLO 205 colon,> 100 µM
same,TGI,OVCAR-8 ovarian,> 100 µM
same,TGI,NCI-H23 lung,> 100 µM
same,TGI,SR leukemia,> 100 µM
same,TGI,KM12 colon,> 100 µM
same,TGI,SN12C renal,> 100 µM
same,TGI,SNB-19 CNS,> 100 µM
same,TGI,UACC-257 melanoma,> 100 µM
same,TGI,SK-MEL-5 melanoma,> 100 µM
same,TGI,786-0 renal,> 100 µM
same,TGI,HL-60(TB) leukemia,> 100 µM
same,TGI,HS 578T breast,> 100 µM
same,TGI,NCI-H226 lung,> 100 µM
same,TGI,UACC-62 melanoma,> 100 µM
same,TGI,HT29 colon,> 100 µM
same,TGI,LOX IMVI melanoma,> 100 µM
same,TGI,PC-3 prostate,> 100 µM
same,TGI,SF-539 CNS,> 100 µM
same,TGI,MDA-N,> 100 µM
same,TGI,SK-MEL-28 melanoma,> 100 µM
same,TGI,TK-10 renal,> 100 µM
same,TGI,MALME-3M melanoma,> 100 µM
same,TGI,ACHN renal,> 100 µM
same,TGI,K-562 leukemia,> 100 µM
same,TGI,EKVX NSCLC,> 100 µM

# Reference: PubChem BioAssay (NCI)
